Measured values as given in article PMC7937321 (Genes and Environment, 2021).
“Also recorded” adds a separate entry of the source. Read-outs that look alike come from different tables or passages of the source.

Key:
rodent [1] = details: cited from earlier work; for carcinogenicity: report of the National Toxicology Program, ref [24]; for Carcinogenicity Studies: rodent, ref [20]-[41], Table 2
livers of rats = details: ref [74]; cited from earlier work
TK6 cells [2] = details: human
[3] = tested on: L5178Y mouse lymphoma cells; parameters: key to MLA (TK gene locus), Without S9 / MLA (TK gene locus), With S9: Positive; Negative; details: cited from earlier work
rats [4] = details: cited from earlier work
rats [5] = details: ref [75]; cited from earlier work
LacI transgenic mice = details: ref [77]; cited from earlier work
gpt transgenic rats = tested on: gpt transgenic rats; parameters: method as in PMID 20026473, doi:10.3123/jemsge.34.25; details: ref [23], [78]; cited from earlier work
mouse organs = details: ref [80]; cited from earlier work
[6] = tested on: TA1538, TA100, TA98, TA97, TA1535; details: cited from earlier work; for Bacterial reverse mutation assay, With S9 / Bacterial reverse mutation assay, Without S9: ref [18]-[40], Table 2
rodent [7] = details: cited from earlier work
[8] = tested on: human lymphoblastoid TK6 cells, thymidine kinase gene; experiment: TK gene mutation assay (TK6 assay, OECD TG490); details: for TK6 assay overall judgment: all treatments; for TK mutation assay, With S9 / TK mutation assay, Without S9: short-term 4 h; for TK mutation assay, With S9: with rat liver S9
Description: (§1) In principle, this collaborative study conducted the treatment of test substances, the dose finding, and the main test of TK6 assays, according to the OECD Guideline TG490 [17]. […] Briefly, test substances were dissolved in an appropriate solvent (DMSO or ethanol) and then serially diluted to prepare final concentrations. […] The 4 h and 24 h treatments were conducted by shaking and static exposures, respectively. After treatment with test substances, cells were centrifuged (1000 rpm, 5 min), supernatants were removed, and cells were washed with a serum-free medium or Hank’s Balanced Salt Solution. After centrifugation (1000 rpm, 5 min) to remove the supernatant, cells (2 × 10^7 cells) were dispersed in an RPMI medium containing 10% serum, and cell concentration was measured. Treated cells were cultured at 37 °C with 5% CO2 condition and used for TK6 assays. At that time, to calculate the cloning efficiency (CE) (Eq. 1), the cells were cultured in a 96-well microplate at a concentration of about 1.6 cells/well for 2 weeks.
(§2) The TK6 assay is conducted between 20 and 10% RS0 as a maximum dose if cytotoxicity is observed. If no precipitate or limiting cytotoxicity was observed, the maximum dose was the lowest concentration among 10 mM, 2 mg/mL, or 2 μL/mL of the test substance. When the main TK6 assay was difficult to conduct under the condition of RS0 values from 20 to 10%, the test was conducted between 20 and 10% relative total growth (RTG), described later, as a maximum dose.
(§3) On the third day of culture, CE3 plates for determining plating efficiency and mutant frequency (MF) plates for mutation detection were prepared. CE3 plates were seeded in 96-well microplates at a concentration of about 1.6 cells/well. The MF plates were seeded in 96-well microplates at 40,000 cells/well in the presence of 3 μg/mL of trifluorothymidine (Sigma Aldrich).
(§4) Mutant colonies in MF plates were calculated using Eq. 7 using the Poisson distribution. EW was the number of wells without colonies, and TW was the total number of wells. N was the average number of cells per well (N = 40,000 in this study). The data were statistically analyzed by Omori’s method, a modified Dunnett’s procedure for identifying clear negatives, a Simpson–Margolin procedure for detecting downturn data, and a trend test to evaluate the dose dependency [42, 43]. The acceptability criterion for the test was that the MF value of the positive control group of each laboratory was increased with statistical significance compared with that of the concurrent negative control group.

TK6 cells [9] = experiment: Cytotoxicity in the TK6 assay (CE, RS, RSG, RTG)
[10] = tested on: human lymphoblastoid TK6 cells, thymidine kinase gene
Description: as §1, §2, §3, §4

mammalian cells = tested on: mammalian cells; parameters: method as in PMID 32152633; details: ref [10], [11]; cited from earlier work
[11] = tested on: 3-D reconstituted human skin cells; parameters: method as in PMID 32152633; details: ref [10], [11]; cited from earlier work
in vitro = details: human
[12] = tested on: human lymphoblastoid TK6 cells, thymidine kinase gene; parameters: method as in PMID 2184322; details: 96 h of exposure, absence of S9; ref [67]; cited from earlier work
human lymphocytes = tested on: human lymphocytes; parameters: method as in PMID 22539226; details: in vitro; ref [6]; cited from earlier work
mice = tested on: mice; parameters: method as in PMID 22539226; details: ref [6]; cited from earlier work
[13] = chromosomal Aberration test, micronucleus test, transgenic rodent gene mutation assay, ref [48], [58]–[63]
[14] = Short-term treatment with metabolic activation
[15] = Short-term treatment without metabolic activation

Cc1ccc(N)cc1N [2,4-Diaminotoluene, reference compound]
carcinogenicity (rodent [1]): carcinogenic | DNA adducts in the livers of rats (livers of rats): Significant DNA adducts were detected

Cc1c(N)cccc1N [2,6-Diaminotoluene]
cytotoxicity (TK6 cells [2]): More than 80% | carcinogenicity (rodent [1]): non-carcinogenic | Carcinogenicity Studies (rodent [1]): Neg | mutagenicity in MLA using L5178Y mouse lymphoma cells ([3]; 4 h, −S9, ref [68]): occurs | MLA (TK gene locus), Without S9 ([3]; ref [27], [46]-[53], Table 3): Pos | UDS assay (rats [4]; high dose, ref [79]): positive | unscheduled DNA synthesis (UDS) assay in rats (rats [4]; ref [76]): negative | DNA adducts in the livers of rats (livers of rats): marginal amount of adducts | hepatocellular proliferation in rats (rats [5]): negative | mutagenic assay with LacI transgenic mice (LacI transgenic mice): negative | gpt mutagenic assay with transgenic rats (gpt transgenic rats): negative | comet assay of various mouse organs (mouse organs): negative | The Highest Specific Activity and the Strain ([6]; TA100 with S9, ref Table 2): 1703 revertants/mg in TA100 with S9 | Bacterial reverse mutation assay, With S9 [6]: Pos | Bacterial reverse mutation assay, Without S9 [6]: Neg | in vivo genotoxicity tests (rodent [7]; [13]): negative | TK6 assay result (mutant frequency increase, judgment) ([8]; 4h treatment (+S9)): Statistically significant increases of MF; also recorded: mutagenic | TK6 assay result (mutant frequency increase, judgment) ([8]; 4h treatment (-S9)): negative | TK mutation assay, Long term ([8]; 24 h, without S9): Pos | TK6 assay result (mutant frequency increase, judgment) ([8]; 24h treatment (-S9)): Statistically significant increases of MF; also recorded: positive; also recorded: mutagenic | TK6 assay overall judgment [8]: positive | TK mutation assay, With S9 [8]: Pos | TK mutation assay, Without S9 ([8]; without S9): Neg

Cl.ClCc1ccccn1 [2-(Chloromethyl) pyridine HCl]
Carcinogenicity Studies (rodent [1]): Neg | MLA (TK gene locus), With S9 ([3]; with S9, ref [27], [46]-[53], Table 3): Pos | MLA (TK gene locus), Without S9 ([3]; ref [27], [46]-[53], Table 3): Pos | The Highest Specific Activity and the Strain ([6]; TA100 with S9, ref Table 2): 98.6 revertants/mg in TA100 with S9 | Bacterial reverse mutation assay, With S9 [6]: Pos | Bacterial reverse mutation assay, Without S9 [6]: Pos | in vivo genotoxicity tests (rodent [7]; in vivo): negative | TK6 assay result (mutant frequency increase, judgment) ([8]; 4h treatment (+S9)): clear concentration-dependent increase of MF | TK6 assay result (mutant frequency increase, judgment) ([8]; 4h treatment (-S9)): clear concentration-dependent increase of MF | Dunnett type test, test statistic [8, 14]: 5.868 | Trend test, test statistic [8, 14]: 3.912 | Dunnett type test, test statistic [8, 15]: 5.268 | Trend test, test statistic [8, 15]: 3.417 | TK6 assay overall judgment [8]: positive | TK mutation assay, With S9 [8]: Pos | TK mutation assay, Without S9 ([8]; without S9): Pos | cytotoxicity (relative colony efficiency) (TK6 cells [9]; 60 μg/mL, absence of S9, short-term): About 80% | cytotoxicity (relative colony efficiency) (TK6 cells [9]; 100 μg/mL, presence of S9, short-term): About 80%

Oc1cccc2cccnc12 [8-Hydroxyquinoline]
TK mutation assay, With S9 [10]: Pos | TK mutation assay, Without S9 [10]: Neg | Trend test, test statistic ([10]; human): 4.896 / 1.645 / p < 0.05 | Carcinogenicity Studies (rodent [1]): Neg | MLA (TK gene locus), Without S9 ([3]; ref [27], [46]-[53], Table 3): Pos | The Highest Specific Activity and the Strain ([6]; TA97 with S9, ref [28]): 21,400 revertants/mg | The Highest Specific Activity and the Strain ([6]; TA100 with S9, ref Table 2): 16,000 revertants/mg | specific activity values obtained from Ames test ([6]; ref Table 2): exceeding 10,000 revertants per milligram | Bacterial reverse mutation assay, With S9 [6]: Pos | Bacterial reverse mutation assay, Without S9 [6]: Neg | in vivo genotoxicity tests (rodent [7]; [13]): negative

C[N+](C)(C)c1ccc2ccc(O)c(N=Nc3ccc(N)c([N+](=O)[O-])c3)c2c1.[Cl-] [Basic Brown 17]
mutation assays using mouse lymphoma ([3]; two loci of TK and HPRT, ref [10], [11]): negative | in vitro micronucleus test using mammalian cells (mammalian cells): negative | comet assay with 3-D reconstituted human skin cells [11]: negative | Ames test ([6]; ref [10], [11]): positive

COS(C)(=O)=O [MMS, methyl methanesulfonate]
Mut. freq. T-MF (MF) ([10]; human, 4 h, 3 μg/mL): 23.9 ×10-6 | MF ([10]; human, 4 h, 5 μg/mL): 71.7 | Mut. freq. N-MF ([10]; human, 4 h, 5 μg/mL): 29.3 ×10-6 | Mut. freq. S-MF ([10]; human, 4 h, 5 μg/mL): 42.3 ×10-6 | Mut. freq. T-MF ([10]; human, 4 h, 5 μg/mL): 71.7 ×10-6 | %SG ([10]; human, 24 h, 1 μg/mL): 59.3% | Mut. freq. (×10-6) N-MF ([10]; human, 24 h, 1 μg/mL): 14.0 ×10-6 | Mut. freq. (×10-6) S-MF ([10]; human, 24 h, 1 μg/mL): 20.5 ×10-6 | Mut. freq. (×10-6) T-MF ([10]; human, 24 h, 1 μg/mL): 34.5 ×10-6 | MF ([10]; human, 24 h, 2 μg/mL): 86.4 | Mut. freq. (×10-6) N-MF ([10]; human, 24 h, 2 μg/mL): 25.3 ×10-6 | Mut. freq. (×10-6) S-MF ([10]; human, 24 h, 2 μg/mL): 39.7 ×10-6 | Mut. freq. (×10-6) T-MF ([10]; human, 24 h, 2 μg/mL): 65.0 ×10-6 | Mut. freq. N-MF ([10]; human, 24 h, 2 μg/mL): 51.4 ×10-6 | Mut. freq. S-MF ([10]; human, 24 h, 2 μg/mL): 34.9 ×10-6 | Mut. freq. T-MF ([10]; human, 24 h, 2 μg/mL): 86.4 ×10-6 | CE0 (%) (TK6 cells [2]; 4 h, 3 μg/mL): 48.8% | CE0 (%), cell viability on Day 0 (TK6 cells [2]; 4 h, 3 μg/mL): 38.3% | CE3 (%) (TK6 cells [2]; 4 h, 3 μg/mL): 56.3% | CE3 (%), cell viability on Day 3 (TK6 cells [2]; 4 h, 3 μg/mL): 54.7% | Daily cell growth Day 1×2×3 (TK6 cells [2]; 4 h, 3 μg/mL): 8.36 | Adjusted CE0 (TK6 cells [2]; 4 h, 5 μg/mL): 30.4% | CE0 (TK6 cells [2]; 4 h, 5 μg/mL): 32.6% | Daily cell growth Day 1×2×3 (TK6 cells [2]; 4 h, 5 μg/mL): 7.40 | RS (TK6 cells [2]; 4 h, 5 μg/mL): 35.0 | RS0 (TK6 cells [2]; 4 h, 5 μg/mL): 35.0% | RSG (TK6 cells [2]; 4 h, 5 μg/mL): 0.357 | Adjusted CE0(%) (TK6 cells [2]; 24 h, 1 μg/mL): 133.2% | CE0 (%) (TK6 cells [2]; 24 h, 1 μg/mL): 63.1% | CE3 (TK6 cells [2]; 24 h, 1 μg/mL): 0.866 | CE3 (%) (TK6 cells [2]; 24 h, 1 μg/mL): 86.6% | Daily cell growth Day 1×2×3 (TK6 cells [2]; 24 h, 1 μg/mL): 15.58 | RS0 (%) (TK6 cells [2]; 24 h, 1 μg/mL): 59.4% | RSG (TK6 cells [2]; 24 h, 1 μg/mL): 0.886 | Adjusted CE0 (TK6 cells [2]; 24 h, 2 μg/mL): 8.3% | Adjusted CE0(%) (TK6 cells [2]; 24 h, 2 μg/mL): 42.0% | CE0 (TK6 cells [2]; 24 h, 2 μg/mL): 14.6% | CE0 (%) (TK6 cells [2]; 24 h, 2 μg/mL): 21.6% | CE3 (%) (TK6 cells [2]; 24 h, 2 μg/mL): 81.6% | RS (TK6 cells [2]; 24 h, 2 μg/mL): 12.2 | RS0 (TK6 cells [2]; 24 h, 2 μg/mL): 12.2% | RS0 (%) (TK6 cells [2]; 24 h, 2 μg/mL): 18.7% | viability at 4 h, 3 μg/mL (in vitro; CE0 (%), cell viability on Day 0): 27.3% | viability at 4 h, 3 μg/mL (in vitro; CE3 (%), cell viability on Day 3): 70.6%

Nc1ccc(-c2ccc(N)cc2)cc1 [benzidine]
Mutagenicity in human TK6 cells [12]: Mutagenicity was confirmed

CSc1ccc(OCc2ncc([N+](=O)[O-])n2C)cc1 [fexinidazole, reference compound]
micronucleus test in human lymphocytes (human lymphocytes): negative | ex vivo unscheduled DNA synthesis in rats (rats [4]; ref [6]): negative | bone marrow micronucleus test in mice (mice): negative | Ames test ([6]; ref [6]): positive
